In patent publication US20050238740A1, “Use of mastic and its components for the control of microbial infections” (priority 2002, published 2005):
Converted amounts (≈) assume the structure as drawn. “And” between values parts separate entries of the source, which are not always exact repeats. Equal entries are not always repeated. Where two headings read alike, the source gives them in different places.

Columns and labels:
Assay in all cases: MTT cytotoxic/cytostatic activity, 48 hours exposure
Format in all cases: cell-based
[1] = tested on: human epidermoid carcinoma A431; conditions: for IC50: Homo sapiens, A-431
Description: (§1) Three extracts derived from Pistacia lentiscus var. Chia were tested for their cytotoxic/cytostatic activity against three established cancer cell lines, i.e human mammary adenocarcinoma MCF-7, human colon adenocarcinoma HT-29, and human epidermoid carcinoma A431. A modification of the MTT method (Denizot and Lang, 1986, J Immunol Meth 89, 271) was used for the assessment of cytotoxicity. Briefly, exponentially growing cells were exposed to varying concentrations of the test compounds (or control medium) for 48 hours. Then, the medium was replaced with MTT [3-(4,5-dimethylthiazol-2-yl)-2,5-diphenyltetrazolium bromide] for a further 4 -hour incubation. Finally, the MTT-formazan was solubilized in isopropanol and the optical density was measured at a wavelength of 550 nm and a reference wavelength of 690 nm. A representative example of the semi-log inhibition curves obtained after exposure of A43 1 cells to the three Pistacia lentiscus extracts is illustrated in FIG. 2.
The inhibition curves were used to determine the IC50 of each extract, i.e. the concentration that produced a 50% reduction of the absorbance relative to the absorbance of the control culture. The average IC50s of each extract for each cell line, after at least three independent trials, are presented in the following table (5-fluorouracil a classical chemotherapeutic agent, was included as a positive control in the case of A431 epidermoid carcinoma cells):
We used the methodology of MTT (see Example 6), using A431 cells. The average IC50s of each compound, after at least three independent trials, are presented in the following table (the data of the previous report regarding A431 cells are included in the table for reasons of comparison):
The neutral extract of the essential oil and two of the isolated ingredients, i.e. isomasticadienolic acid, and oleanonic acid were tested for […] activity using the methodology of MTT (Example 7) and three established human cancer cell lines.

[2] = tested on: human lung carcinoma A549; conditions: two independent trials, essential oil dissolved in absolute ethanol (Table 11)
[3] = tested on: human colon adenocarcinoma HT-29; conditions: two independent trials, essential oil dissolved in absolute ethanol (Table 11)
Description: as §1
The inhibition curves were used to determine the IC50 of each extract, i.e. the concentration that produced a 50% reduction of the absorbance relative to the absorbance of the control culture. […]

[4] = A431, at least three independent trials (Table 10), read-out: IC50, inhibition of A431 cancer cell proliferation

Which IC50 [1, 4] does the source give for O=c1[nH]cc(F)c(=O)[nH]1 [5-fluorouracil, reference compound] here?
The IC50 was 2.25 µg/mL and 17.3 µM.

What about the IC50 ([1]; Epidermoid carcinoma A431, 48 hours, at least three independent trials (Table 9), read-out: IC50, inhibition of cancer cell proliferation) of the same molecule?
Its IC50 is 2.25 µg/mL (≈ 17.3 µM).

C/C(=C/CC[C@H](C)[C@@H]1CC[C@]2(C)C3=C(CC[C@@]12C)[C@@]1(C)CC[C@H](O)C(C)(C)[C@@H]1CC3)C(=O)O [Isomasticadienolic, isomasticadienolic acid] was tested. Which “average IC50” value [2] did it give?
Its value is 95 (±5) μg/mL.

And the “average IC50” value ([1]; Epidermoid carcinoma A431, two independent trials, essential oil dissolved in absolute ethanol (Table 11))?
The value was 25 (±5) μg/mL.

And the “average IC50” value [3]?
Its value is 95 (±5) μg/mL.

CC1(C)C=C2[C@H]3CC[C@@H]4[C@@]5(C)CCC(=O)C(C)(C)[C@@H]5CC[C@@]4(C)[C@]3(C)CC[C@@]2(C(=O)O)CC1 [moronic, moronic acid] was tested. Which IC50 [1, 4] did it give?
The IC50 was 47.7 µg/mL and 105 µM.

How did the IC50 ([2]; Homo sapiens) turn out when CC1(C)CC[C@]2(C(=O)O)CC[C@]3(C)C(=CC[C@@H]4[C@@]5(C)CCC(=O)C(C)(C)[C@@H]5CC[C@]43C)[C@@H]2C1 [oleanonic, oleanonic acid] was run?
The IC50 was 110 µg/mL (≈ 242 µM).

What about the IC50 [1, 4] of the same molecule?
Its IC50 is 17.5 µg/mL and 38.3 µM.

What about the IC50 ([1]; Epidermoid carcinoma A431, two independent trials, essential oil dissolved in absolute ethanol (Table 11), read-out: average IC50) of the same molecule?
Its IC50 is 45 µg/mL (≈ 99 µM).

What about the IC50 ([3]; Homo sapiens) of the same molecule?
The IC50 was 105 µg/mL (≈ 231 µM).
